Assay results published in patent US20040077031A1, “Novel methionine aminopeptidase-2 and uses thereof” (priority 2002, published 2004).
Entries after “also recorded” stand apart in the source; their conditions may differ. Read-outs that look alike come from different tables or passages of the source.

Legend:
HMVEC cells = experiment: Penetration and accumulation into HMVEC cells; format: in vitro ADME, human
HMVEC = experiment: 3-day HMVEC proliferation assay; format: cell-based, human
Procedure: (§1) The cellular activity of A-357300 was tested in HMVEC grown in complete EGM2 medium enriched with a combination of growth factors (vascular endothelial growth factor (VEGF), basic fibroblast growth factor (bFGF), epidermal growth factor (EGF), and insulin-like growth factor (IGF)) and fetal bovine serum. […] To determine that the cellular effect of A-357300 was through inhibition of cellular MetAp2, HMVEC were incubated with the MetAP2 inhibitors fumagillin and A-357300 for 4 hours before ^35S-methionine was added to the culture. After another 2-hour incubation, cellular proteins were collected and applied to a reactive dye-agarose column as described in Example 6. MetAP2 specific substrates (GAPDH and other cellular proteins with a N-terminal cleavable initiator methionine) were captured on the agarose column.

cellular MetAP2 = target: T1, cellular MetAP2 (Homo sapiens, UniProt P50579); experiment: Cellular MetAP2 activity (unprocessed initiator methionine of cellular proteins) in HMVEC; format: cell-based; details: for inhibition of cellular MetAP2 activity / initiator methionine processing: HMVEC
T1 construct: host or cells: HMVEC
T1 sequence (P50579 whole entry): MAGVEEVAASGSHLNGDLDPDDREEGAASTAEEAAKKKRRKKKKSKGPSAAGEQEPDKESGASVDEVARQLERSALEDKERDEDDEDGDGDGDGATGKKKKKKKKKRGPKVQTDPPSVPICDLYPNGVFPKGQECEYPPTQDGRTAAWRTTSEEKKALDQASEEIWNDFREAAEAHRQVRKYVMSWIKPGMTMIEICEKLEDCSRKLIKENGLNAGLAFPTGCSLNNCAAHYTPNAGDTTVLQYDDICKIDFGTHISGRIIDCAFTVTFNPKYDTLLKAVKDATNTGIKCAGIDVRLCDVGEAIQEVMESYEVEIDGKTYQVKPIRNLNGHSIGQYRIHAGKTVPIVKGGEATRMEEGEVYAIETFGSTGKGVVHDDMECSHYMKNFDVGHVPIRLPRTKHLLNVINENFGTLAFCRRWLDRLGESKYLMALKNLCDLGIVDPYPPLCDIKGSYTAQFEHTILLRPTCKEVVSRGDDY
Procedure: Human microvascular endothelial cells (HMVEC) (Clonetics, San Diego, Calif.) were grown in EGM2 recommended medium (Wang et al., J. Cell. Biochem. 77: 465-473, 2000). Cells in T75 flasks at approximately 70% confluence were changed to 15 ml EGLM (labeling medium, Clonetics) without added methionine. Fumagillin (Sigma Catalog No. F-6771) or A310840 (Abbott Laboratories, Abbott Park, Ill.) was added to the culture to final concentrations of 1 nM (fumagillin) or 0.5, 2 and 5 μM (A310840). The cells and inhibitors were incubated for four hours before adding 0.5 mCi/flask of ^35S-methionine (Amersham, Piscataway, N.J.). The cells were allowed further incubation for two hours, washed and lysed in 1 ml M-per (Pierce, Rockford, Ill.) buffer. The lysate samples having the same amount of radioactivity were loaded to a 0.5 ml column of Reactive Blue 72-agarose (Sigma, St. Louis, Mo.) equilibrated with 20 mM Tris/HCl, pH 7.5, 150 mM NaCl. The columns were washed with 30 ml equilibrium buffer, and then incubated with 3 ml of 100 nM MetAP2 in equilibration/washing buffer for 20 minutes at room temperature. The MetAP2 cleaved radioactivity (unprocessed initiator methionine) was then counted.
as §1

MetAP2 [1] = target: T2, MetAP2 (Homo sapiens, UniProt P50579); experiment: MetAP2 enzyme inhibition, coupled-enzyme chromogenic assay; format: biochemical
T2 construct: gp67 secretion signal of vector pAcGP67B (N); made in house; host or cells: baculovirus-infected Sf9 insect cells, secreted into medium
T2 sequence (P50579 whole entry): as above
From the text: (§2) A coupled-enzyme chromogenic assay was used to measure methionine aminopeptidase activity by monitoring the production of free methionine cleaved from specific peptide substrates containing methionine. […] Other peptides can be used including dimeric, tetrameric, pentameric, hexameric, heptameric, nonameric, decameric, and undecameric peptides. […] Free methionine was oxidized with L-amino acid oxidase (AAO, Sigma Catalog No. A-9378) and horseradish peroxidase (HRP, Sigma Catalog No. P-8451). Oxidation by AAO of free methionine generates hydrogen peroxide (H2O2) which then reacts with HRP oxidizing 0-dianisidine (Sigma Catalog No. D-1954) or 10-acetyl-3,7-dihydrophenoxazine (Amplex Red, Molecular Probes). Assays were performed in 96-well microtiter plates. Enzyme preparations were diluted in assay buffer (50 mM HEPES, pH 7.4, 100 mM NaCl), and 10 μl of the enzymes were introduced into each well. A mixture (90 μl) of 0.1 mg/ml L-amino acid oxidase, 0.1 mg/ml of horseradish peroxidase, 0.1 mg/ml ortho-dianisidine, and 0.5 mM peptide substrate was added to each cell. The reactions were carried out at room temperature, and the absorbance at 450 nanometer (A450) was measured every 20 seconds over a period of twenty minutes using an automatic plate reader (Molecular Devices, Calif., USA). The rate in mOD/min, calculated for each well, was used to represent MetAP1 or MetAP2 activity. Under this assay condition, the methionine cleaved from peptide substrate by MetAP1 or MetAP2 was instantaneously oxidized to generate a final A450 readout.
as §1

MetAP1 [2] = target: T3, MetAP1 (Homo sapiens, UniProt P53582); experiment: Metal dependence of MetAP1 in the presence of glutathione, radioactive methionine assay; format: biochemical; details: 5 mM glutathione
T3 construct: histidine tag (N); gp67 secretion signal of vector pAcGP67B (N); made in house; host or cells: baculovirus-infected Sf9 insect cells, secreted into medium
Procedure: Fmoc-L-Lys(biotinyl) —OH was purchased from Bachem (King of Prussia, Pa.). Fmoc-L-[methyl-^3H]Methionine was synthesized by reacting Fmoc-Cl with L-[methyl-^3H]Methionine (Amersham, Piscataway, N.J.) in a 1:1 Dioxane/10% Na2CO3(aq) mixed solvent. The peptides were deprotected and cleaved from the resin using a trifluoroacetic acid solution containing water, thioanisole, and ethanedithiol (900 μl:25 μl:50 μl:25 μl) as scavengers. The peptides were purified by HPLC using a Waters C18 Symmetry column (7.8×300 mm, 7 μm; Milford, Mass.). […] The resulting amount of cleaved radioactive methionine is directly proportional to the catalytic activity of the MetAP. […] (See U.S. Pat. No. 6,156,495 for a discussion of labels and uses thereof). Conversely, anything impairing the catalytic activity of MetAP (e.g., inhibitory agents, wrong metal cofactor) will result in a decreased amount of free radioactive methionine.
To study the effect of metal ions in the presence of physiologically relevant reduced glutathione (GSH) (Walker and Bradshaw, 1998), the assay measuring radioactive methionine release from a peptide described in Example 3.2 was used because GSH affected the coupled enzyme chromogenic assay.

MetAP2 [3] = target: T2, MetAP2; experiment: Metal dependence and baseline activity of MetAP2, chromogenic assay; format: biochemical
From the text: as §2
Both MetAP1 and MetAP2 need the presence of a metal in the active site for optimal activity, and have previously been classified as Co^2+, metalloproteases (Arfin et al, 1995; Li and Chang, 1996). […]

MetAP1 [4] = target: T3, MetAP1; experiment: Metal dependence and baseline activity of MetAP1, chromogenic assay; format: biochemical
From the text: as §2
Both MetAP1 and MetAP2 need the presence of a metal in the active site for optimal activity, and have previously been classified as Co^2+, metalloproteases (Arfin et al, 1995; Li and Chang, 1996). […] Calcium chloride (Ca^2+), cobalt chloride (Co^2+), cupric chloride (Cu^2+), ferrous chloride (Fe^2+), magnesium chloride (Mg^2+), manganese chloride (Mn^2+), nickel chloride (Ni^2+), or zinc chloride (Zn^2+) was included in each assay at final concentrations of 0, 0.1, 1, 10, 100, 1000, and 10,000 μM in the assay buffer (50 mM HEPES, pH 7.4, 100 mM NaCl).

[5] = tested on: Prostate Epithelial cells; experiment: Cell proliferation inhibition; format: cell-based; details: Normal human primary cells, read-out: IC50s of proliferation inhibition
From the text: (§3) Table 2 summarizes the selectivity of MetAP2 inhibitors in inhibiting the proliferation of endothelial cells and certain tumor cells. Proliferation of endothelial cells of various origins, normal human primary cells pf non-EC type, and tumor cell lines were studied with MetAP2 inhibitors A-357300 and fumagillin. […] Most tumor cells were […] while some were resistant.

CHP-134 = experiment: Cell proliferation inhibition; format: cell-based; details: Homo sapiens, Tumor cells, read-out: IC50s of proliferation inhibition
From the text: as §3

DLD-1 = experiment: Cell proliferation inhibition; format: cell-based; details: Homo sapiens, Tumor cells, read-out: IC50s of proliferation inhibition
From the text: as §3

HCT-15 = experiment: Cell proliferation inhibition; format: cell-based; details: Homo sapiens, Tumor cells, read-out: IC50s of proliferation inhibition
From the text: as §3

BEND3 (mouse) = experiment: Cell proliferation inhibition; format: cell-based; details: EC, read-out: IC50s of proliferation inhibition
From the text: as §3

Mammary Epithelial cells = experiment: Cell proliferation inhibition; format: cell-based; details: Normal human primary cells, read-out: IC50s of proliferation inhibition
From the text: as §3

HT-1080 = experiment: Cell proliferation inhibition; format: cell-based; details: Homo sapiens, Tumor cells, read-out: IC50s of proliferation inhibition
From the text: as §3

MDA-435-LM = experiment: Cell proliferation inhibition; format: cell-based; details: Homo sapiens, Tumor cells, read-out: IC50s of proliferation inhibition
From the text: as §3

MCF7 = experiment: Cell proliferation inhibition; format: cell-based; details: Homo sapiens, Tumor cells, read-out: IC50s of proliferation inhibition
From the text: as §3

MiaPaCa2 = experiment: Cell proliferation inhibition; format: cell-based; details: Homo sapiens, MIA PaCa-2, Tumor cells, read-out: IC50s of proliferation inhibition
From the text: as §3

BAEC (bovine) = experiment: Cell proliferation inhibition; format: cell-based; details: Bos taurus, EC, read-out: IC50s of proliferation inhibition
From the text: as §3

Astrocytes = experiment: Cell proliferation inhibition; format: cell-based; details: Astrocyte, Normal human primary cells, read-out: IC50s of proliferation inhibition
From the text: as §3

Fibroblasts = experiment: Cell proliferation inhibition; format: cell-based; details: Fibroblast, Normal human primary cells, read-out: IC50s of proliferation inhibition
From the text: as §3

A549 = experiment: Cell proliferation inhibition; format: cell-based; details: Homo sapiens, Tumor cells, read-out: IC50s of proliferation inhibition
From the text: as §3

MDA-MB = experiment: Cell proliferation inhibition; format: cell-based; details: Tumor cells, read-out: IC50s of proliferation inhibition
From the text: as §3

NCI-H460 = experiment: Cell proliferation inhibition; format: cell-based; details: Homo sapiens, Tumor cells, read-out: IC50s of proliferation inhibition
From the text: as §3

PC3 = experiment: Cell proliferation inhibition; format: cell-based; details: Homo sapiens, PC-3, Tumor cells, read-out: IC50s of proliferation inhibition
From the text: as §3

T-lymphocytes = experiment: Cell proliferation inhibition; format: cell-based; details: T-lymphocyte, Normal human primary cells, read-out: IC50s of proliferation inhibition
From the text: as §3

Human CEC = experiment: Cell proliferation inhibition; format: cell-based; details: EC, read-out: IC50s of proliferation inhibition
From the text: as §3

HMVEC/HUVEC = experiment: Cell proliferation inhibition; format: cell-based; details: Homo sapiens, read-out: IC50s of proliferation inhibition
Procedure: as §1

MetAP2 [6] = target: T2, MetAP2; experiment: Kinetic constants of MetAP2 with Mn2+ on peptide substrates (chromogenic assay); format: biochemical; details: MetAP2 with 100 μM Mn2+
From the text: as §2, with “A mixture (90 μl) of 0.1 mg/ml L-amino acid oxidase, 0.1 mg/ml of horseradish peroxidase, 0.1 mg/ml ortho-dianisidine, and 0.5 mM peptide substrate was added to each cell.” left out

## c1ccc2cc(CSc3nnc[nH]3)ccc2c1 [A310840, 3-((2-naphthylmethyl)sulfanyl)-4H-1,2,4-triazole]
HMVEC cells
  penetration and accumulation into HMVEC cells: able to penetrate and accumulate
HMVEC
  inhibition of HMVEC cell proliferation: did not inhibit
Cellular MetAP2
  inhibition of cellular MetAP2 activity / initiator methionine processing: did not inhibit
Cellular MetAP2; treatment up to 10 μM
  processing of protein initiator methionine in HMVEC: not blocked
MetAP2 [1]; Mn2+ as metal cofactor
  inhibition of MetAP2-Mn2+: did not inhibit
MetAP2 [1]; Mn2+ form versus baseline, Co2+ and other metal forms
  fold less active as inhibitor of MetAP2 with Mn2+: 1000 fold
MetAP2 [1]; other metal ions including Zn2+, Fe2+, and Ni2+, read-out: IC50 on MetAP2 with many other metal ions
  IC50: 10 to 117 nM
MetAP2 [1]; without added metals, read-out: IC50 on the baseline activity of MetAP2
  IC50: 60 nM

## [Cl][Co][Cl] [Co^2+, cobalt chloride]
MetAP1 [2]
  effect on MetAP1 activity: stimulatory
MetAP2 [3]
  metal concentration of maximum effect on MetAP2: 10 µM
MetAP1 [4]; MAS substrate
  stimulation of MetAP1 activity: about 2 fold
MetAP1 [4]; MGAQFSKT substrate
  stimulation of MetAP1 activity: 5 fold

## [Cl][Fe][Cl] [Fe^2+, ferrous chloride]
MetAP1 [2]
  effect on MetAP1 activity: stimulatory

## CO[C@@H]1[C@H](OC(=O)/C=C/C=C/C=C/C=C/C(=O)O)CC[C@]2(CO2)[C@H]1[C@@]1(C)O[C@@H]1CC=C(C)C [Fumagillin, fumagillin]
[5]
  IC50: > 1000 nM
CHP-134
  IC50: 1 nM
DLD-1
  IC50: 2 nM
HCT-15
  IC50: 3 nM
BEND3 (mouse)
  IC50: 2 nM
Mammary Epithelial cells
  IC50: > 1000 nM
HT-1080
  IC50: 1 nM
MDA-435-LM
  IC50: > 1000 nM
MCF7
  IC50: > 1000 nM
MiaPaCa2
  IC50: > 1000 nM
BAEC (bovine)
  IC50: 1 nM
Astrocytes
  IC50: > 1000 nM
Fibroblasts
  IC50: > 1000 nM
A549
  IC50: 2 nM
MDA-MB
  IC50: > 1000 nM
NCI-H460
  IC50: 3 nM
PC3
  IC50: > 1000 nM
T-lymphocytes
  IC50: 8.3 µM
Human CEC
  IC50: 1 nM
HMVEC; 1 nM
  inhibition of HMVEC cell proliferation: inhibition of cell proliferation
Cellular MetAP2; 1 nM
  unprocessed N-terminal initiator methionine of cellular proteins in HMVEC: increased; also recorded: accumulation of unprocessed N-terminal methionine
Cellular MetAP2
  inhibition of cellular MetAP2 activity / initiator methionine processing: inhibition; also recorded: able to block
MetAP2 [1]; all metal ions
  inhibition of MetAP2 with all metal ions: inhibited MetAP2 with all metal ions
HMVEC/HUVEC
  IC50: 1 nM

## [Cl-].[Cl-].[Zn+2] [Zn^2+, zinc chloride]
MetAP1 [2]
  effect on MetAP1 activity: showed the best activity

## MGKVKVG
MetAP2 [6]
  Km: 215 µM
  kcat: 573.8 min⁻¹

## manganese chloride [Mn^2+]
MetAP2 [3]
  metal concentration of maximum effect on MetAP2: 1 µM
MetAP2 [3]; in the presence and absence of physiological concentrations of GSH
  concentration that fully stimulated human MetAP2 activity: 1 µM
MetAP1 [4]; MAS substrate
  stimulation of MetAP1 activity: about 2 fold
MetAP1 [4]; MGAQFSKT substrate
  stimulation of MetAP1 activity: 3 fold
